Patent US10047084B2, “Imidazolone derivatives, pharmaceutical compositions and uses thereof” (BEIJING FORELANDPHARMA CO. LTD., priority 2013, dated 2018)

Assays:
[1] = target: mTOR kinase (Homo sapiens (Human), UniProt P42345); test: mTOR kinase activity assay (TR-FRET, GFP-4EBP1 substrate); format: biochemical; conditions: read-out: Enzyme (mTOR) IC50
[2] = system: PC-3; test: CTG cell survival assay, PC-3; format: cell-based; conditions: Homo sapiens, PC-3 cells
Outline: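 Cells were exposed to compounds in a 3-fold dilution series, with a top final concentration of 10 uM in 0.1% DMSO. Viable cells were quantified by CellTiter-Glo ATP luminescence.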

[3] = Solubility test in common aqueous vehicles; format: physicochemical; conditions: 25° C., pH = 3

Chain of mTOR kinase (P42345 1360-2549): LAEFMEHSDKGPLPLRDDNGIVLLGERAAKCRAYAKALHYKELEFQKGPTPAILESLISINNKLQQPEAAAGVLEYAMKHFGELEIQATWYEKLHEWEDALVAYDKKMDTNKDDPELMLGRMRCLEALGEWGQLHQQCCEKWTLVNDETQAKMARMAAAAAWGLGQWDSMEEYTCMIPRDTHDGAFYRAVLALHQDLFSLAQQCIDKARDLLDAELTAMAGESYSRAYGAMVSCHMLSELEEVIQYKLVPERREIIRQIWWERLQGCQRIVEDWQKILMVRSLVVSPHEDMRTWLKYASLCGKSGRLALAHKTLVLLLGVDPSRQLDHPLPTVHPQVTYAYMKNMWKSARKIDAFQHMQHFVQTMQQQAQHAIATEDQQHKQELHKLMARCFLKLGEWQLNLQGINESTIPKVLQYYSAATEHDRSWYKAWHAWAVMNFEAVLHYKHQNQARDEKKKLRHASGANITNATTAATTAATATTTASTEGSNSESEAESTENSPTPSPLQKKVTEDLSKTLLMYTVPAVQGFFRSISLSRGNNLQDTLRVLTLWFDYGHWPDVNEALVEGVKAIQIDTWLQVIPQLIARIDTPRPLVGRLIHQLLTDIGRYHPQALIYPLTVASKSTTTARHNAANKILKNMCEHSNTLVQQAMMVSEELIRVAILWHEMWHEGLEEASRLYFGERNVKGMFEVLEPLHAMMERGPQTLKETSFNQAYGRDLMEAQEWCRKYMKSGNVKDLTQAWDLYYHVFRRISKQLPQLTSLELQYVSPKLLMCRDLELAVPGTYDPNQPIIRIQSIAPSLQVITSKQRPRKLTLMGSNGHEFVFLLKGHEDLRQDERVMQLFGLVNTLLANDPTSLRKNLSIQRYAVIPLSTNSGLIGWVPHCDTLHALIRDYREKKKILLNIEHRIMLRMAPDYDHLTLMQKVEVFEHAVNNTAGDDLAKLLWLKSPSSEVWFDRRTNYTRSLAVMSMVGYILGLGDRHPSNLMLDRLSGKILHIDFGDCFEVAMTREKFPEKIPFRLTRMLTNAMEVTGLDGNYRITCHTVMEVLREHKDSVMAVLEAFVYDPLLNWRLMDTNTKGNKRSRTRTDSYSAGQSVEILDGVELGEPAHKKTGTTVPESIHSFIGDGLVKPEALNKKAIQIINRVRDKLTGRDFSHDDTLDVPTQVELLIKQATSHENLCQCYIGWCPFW

| SMILES | IC50 [1] [nM] | EC50 [2] [nM] | solubility ([3]; aqueous buffer, water) [µg/mL] | solubility ([3]; aqueous with cosolvent or surfactant or cyclodextrin, 30% sulfobutyl-β-cyclodextrin) [µg/mL] |
| --- | --- | --- | --- | --- |
| Cn1cc(-c2ccc(-c3ccc4ncc5c(c4c3)n([C@H]3CC[C@@H](O)CC3)c(=O)n5C)cn2)cn1 [Example 18, 1-((1s,4s)-4-hydroxycyclohexyl)-3-methyl-8-(6-(1-methyl-1H-pyrazol-4-yl)pyridin-3-yl)-1H-imidazo[4,5-c]quinolin-2(3H)-one] | < 10 | < 50 | > 5000 | – |
| Cn1cc(-c2ccc(-c3ccc4ncc5c(c4c3)n([C@@H]3CCCN(S(C)(=O)=O)C3)c(=O)n5C)cn2)cn1 [Example 31, (R)-3-methyl-8-(6-(1-methyl-1H-pyrazol-4-yl)pyridin-3-yl)-1-(1-(methanesulfonyl)piperidin-3-yl)-1H-imidazo[4,5-c]quinolin-2(3H)-one] | < 10 | 19 | > 5000 | – |
| Cn1cc(-c2ccc(-c3ccc4ncc5c(c4c3)n(C3CCCN(S(C)(=O)=O)C3)c(=O)n5C)cn2)cn1 (centres unmarked) [Example 3, 3-methyl-8-(6-(1-methyl-1H-pyrazol-4-yl)pyridin-3-yl)-1-(1-(methanesulfonyl)piperidin-3-yl)-1H-imidazo[4,5-c]quinolin-2(3H)-one] | < 10 | < 50 | – | – |
| Cn1cc(-c2ccc(-c3ccc4ncc5c(c4c3)n([C@H]3CCN(S(C)(=O)=O)C3)c(=O)n5C)cn2)cn1 [Example 28, (S)-3-methyl-8-(6-(1-methyl-1H-pyrazol-4-yl)pyridin-3-yl)-1-(1-(methanesulfonyl)pyrrolidin-3-yl)-1H-imidazo[4,5-c]quinolin-2(3H)-one] | < 10 | < 50 | – | > 3000 |
